Source: ChEMBL document CHEMBL1158278, “New macrocyclic spermine (budmunchiamine) alkaloids from Albizia gummifera: with some observations on the structure--activity relationships of the budmunchiamines” (J Nat Prod, 1996)
Converted amounts (≈) assume the structure as drawn.

Assays:
Escherichia coli [1] = assay: Antibacterial activity against Escherichia coli NCTC 9001 at 50 ug/disk; assay type: functional; conditions: read-out: IZ
Pseudomonas aeruginosa [2] = assay: Antibacterial activity against Pseudomonas aeruginosa NCTC 6750; assay type: functional
Bacillus subtilis [3] = assay: Antibacterial activity against Bacillus subtilis NCTC 8326 at 50 ug/disk; assay type: functional; conditions: read-out: IZ
[4] = Toxicity against brine shrimp; assay type: organism-based; conditions: artemia, in vivo
Escherichia coli [5] = assay: Antibacterial activity against Escherichia coli NCTC 9001; assay type: functional
Bacillus subtilis [6] = assay: Antibacterial activity against Bacillus subtilis NCTC 8326; assay type: functional
Staphylococcus aureus [7] = assay: Antibacterial activity against Staphylococcus aureus NCTC 6751 at 50 ug/disk; assay type: functional; conditions: read-out: IZ
Staphylococcus aureus [8] = assay: Antibacterial activity against Staphylococcus aureus NCTC 6751; assay type: functional
Pseudomonas aeruginosa [9] = assay: Antibacterial activity against Pseudomonas aeruginosa NCTC 6750 at 50 ug/disk; assay type: functional; conditions: read-out: IZ

Row | SMILES | zone of inhibition at 50 µg/disc (Escherichia coli [1]) | MIC (Pseudomonas aeruginosa [2]) | zone of inhibition at 50 µg/disc (Bacillus subtilis [3]) | LC50 [4] | MIC (Escherichia coli [5]) | MIC (Bacillus subtilis [6]) | zone of inhibition at 50 µg/disc (Staphylococcus aureus [7]) | MIC (Staphylococcus aureus [8]) | zone of inhibition at 50 µg/disc (Pseudomonas aeruginosa [9])
1 | CCCCCCCCCCCCCCCC1CC(=O)NCCCN(C)CCCCN(C)CCCN1 (configuration not stated) | 10 mm | 32 µg/mL (≈ 64.7 µM) | 11 mm | 16.5 µg/mL (≈ 33.3 µM) | 27 µg/mL (≈ 54.6 µM) | 20 µg/mL (≈ 40.4 µM) | 12 mm | 15 µg/mL (≈ 30.3 µM) | 10 mm
2 | CCCCCCCCCCCCCCCC1CC(=O)NCCCNCCCCN(C)CCCN1C (configuration not stated) | 9 mm |  | 10 mm | 18.2 µg/mL (≈ 36.8 µM) |  |  | 11 mm |  | 10 mm
3 | CCCCCCCCCCCCCCCC1CC(=O)NCCCN(C)CCCCNCCCN1C (configuration not stated) | 9 mm |  | 10 mm | 15.9 µg/mL (≈ 32.1 µM) |  |  | 11 mm |  | 9 mm
4 | CCCCCCCC(O)CCCCCC1CC(=O)NCCCN(C)CCCCN(C)CCCN1C (configuration not stated) | 7 mm | 84 µg/mL (≈ 169 µM) | 8 mm | 79.7 µg/mL (≈ 160 µM) | 72 µg/mL (≈ 145 µM) | 45 µg/mL (≈ 90.6 µM) | 8 mm | 35 µg/mL (≈ 70.4 µM) | 7 mm
5 | CCCCCCCCCC(O)CCCCCC1CC(=O)NCCCN(C)CCCCN(C)CCCN1 (configuration not stated) | 7 mm |  | 9 mm | 60.4 µg/mL (≈ 118 µM) |  |  | 9 mm |  | 7 mm
6 | CCCCCCCCCC(O)CCCCCC1CC(=O)NCCCN(C)CCCCN(C)CCCN1C (configuration not stated) | 7 mm | 75 µg/mL (≈ 143 µM) | 8 mm | 69.1 µg/mL (≈ 132 µM) | 64 µg/mL (≈ 122 µM) | 42 µg/mL (≈ 80 µM) | 9 mm | 30 µg/mL (≈ 57.2 µM) | 8 mm
7 | CCCCCCCCCCCC1CC(=O)NCCCN(C)CCCCN(C)CCCN1C (configuration not stated) [BUDMUNCHIAMINE A] | 11 mm | 30 µg/mL (≈ 66.3 µM) | 11 mm | 4 µg/mL (≈ 8.83 µM) | 25 µg/mL (≈ 55.2 µM) | 15 µg/mL (≈ 33.1 µM) | 10 mm | 18 µg/mL (≈ 39.8 µM) | 10 mm
8 | CCCCCCCCCCCCCC1CC(=O)NCCCN(C)CCCCN(C)CCCN1 (configuration not stated) [BUDMUNCHIAMINE G] | 10 mm | 35 µg/mL (≈ 75 µM) | 12 mm | 12.3 µg/mL (≈ 26.3 µM) | 30 µg/mL (≈ 64.3 µM) | 24 µg/mL (≈ 51.4 µM) | 10 mm | 18 µg/mL (≈ 38.6 µM) | 9 mm
9 | CCCCCCCCCCCCCCCC1CC(=O)NCCCN(C)CCCCN(C)CCCN1C (configuration not stated) [BUDMUNCHIAMINE K] | 11 mm | 28 µg/mL (≈ 55 µM) | 10 mm | 6.6 µg/mL (≈ 13 µM) | 24 µg/mL (≈ 47.2 µM) | 19 µg/mL (≈ 37.3 µM) | 11 mm | 15 µg/mL (≈ 29.5 µM) | 11 mm
10 | O=C(N[C@H](CO)[C@H](O)c1ccc([N+](=O)[O-])cc1)C(Cl)Cl [CHLORAMPHENICOL] | 26 mm | 26 µg/mL (≈ 80.5 µM) | 31 mm |  | 12 µg/mL (≈ 37.1 µM) | 7 µg/mL (≈ 21.7 µM) | 24 mm | 7 µg/mL (≈ 21.7 µM) | 17 mm
